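Step 1: Grow cells in 96-well plates. Step 2: Expose to compound for 48 hours at 5 concentrations. Step 3: Interpolate endpoints linearly; if unreached, use highest concentration. At the GI50, growth is halved.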 Activity calls are given as the source filed them. Rule as the data show it: active = GI50 up to about 1.1 µM and inactive = higher.
Key:
Experiment in all cases: NCI tumour cell line growth inhibition, 48 h
[1] = system: DLD-1
[2] = system: DMS-114
[3] = system: M19-MEL
[4] = system: SNB-78
[5] = system: LXFL 529
[6] = system: RXF 631
[7] = system: DMS-273
[8] = system: XF498
[9] = system: HOP-18

SMILES	GI50 [1]	GI50 [2]	GI50 [3]	GI50 [4]	GI50 [5]	GI50 [6]	GI50 [7]	GI50 [8]	GI50 [9]
CCOC(=O)C(=O)Nc1nc2ccc(C)cc2s1	> 100 µM (inactive)	> 100 µM (inactive)	> 100 µM (inactive)	87.7 µM (inactive)	> 100 µM (inactive)	> 100 µM (inactive)	> 100 µM (inactive)	> 100 µM (inactive)	–
COCC1N=C(c2cc(OC)c(OC)c(OC)c2-c2cc3c(cc2C2OCCCO2)OCO3)O[C@H]1c1ccccc1 (stereo partly drawn)	> 100 µM (inactive)	> 100 µM (inactive)	> 100 µM (inactive)	–	–	–	> 100 µM (inactive)	–	–
CCCCCCCCCCCCCC(=O)NCC(OCC)OCC	> 100 µM (inactive)	> 100 µM (inactive)	> 100 µM (inactive)	> 100 µM (inactive)	> 100 µM (inactive)	–	> 100 µM (inactive)	> 100 µM (inactive)	> 100 µM (inactive)
CCOC(=O)C(CCCNC(=O)OC(C)(C)C)N(Cc1ccc(OC)cc1OC)C(=O)CC(=O)CP(=O)(OCC)OCC (stereo not drawn)	> 100 µM (inactive)	21 µM (inactive)	> 100 µM (inactive)	–	> 100 µM (inactive)	> 100 µM (inactive)	> 100 µM (inactive)	–	> 100 µM (inactive)
CCn1c2ccccc2c2c(-c3ccccc3)cc3c(c21)C(=O)N(c1ccccc1)C3=O	> 100 µM (inactive)	> 100 µM (inactive)	> 100 µM (inactive)	> 100 µM (inactive)	> 100 µM (inactive)	–	46.2 µM (inactive)	> 100 µM (inactive)	–
O=c1c2cc3c(cc2c2cccc4c2n1CCC4)OCO3	26.8 µM (inactive)	–	86.7 µM (inactive)	68.5 µM (inactive)	37.5 µM (inactive)	–	28.1 µM (inactive)	–	49.5 µM (inactive)
C/C(=N\NC(=S)N1CCCCCC1)c1nccnc1C	1.42 µM (inactive)	< 0.01 µM (active)	0.174 µM (active)	0.885 µM (active)	< 0.01 µM (active)	–	< 0.01 µM (active)	1.43 µM (inactive)	0.617 µM (active)
COc1cc(/C=C2\CCc3ccccc3C2=O)cc(OC)c1OC	13.8 µM (inactive)	12.5 µM (inactive)	15.9 µM (inactive)	24 µM (inactive)	15.2 µM (inactive)	22.4 µM (inactive)	11.9 µM (inactive)	17.9 µM (inactive)	13.6 µM (inactive)
COC(=O)/C=C1/CCC(C(=O)OC)N1 (stereo not drawn)	> 100 µM (inactive)	> 100 µM (inactive)	> 100 µM (inactive)	> 100 µM (inactive)	> 100 µM (inactive)	–	> 100 µM (inactive)	> 100 µM (inactive)	–
O=C(CCc1nnc2s/c(=C\c3ccc(Cl)cc3Cl)c(=O)n12)Nc1cc(Cl)c(Cl)cc1Cl	> 10 µM (inactive)	> 10 µM (inactive)	> 10 µM (inactive)	84.1 µM (inactive)	> 10 µM (inactive)	71.4 µM (inactive)	> 10 µM (inactive)	> 10 µM (inactive)	> 10 µM (inactive)
COc1cc2noc(-c3ccccc3)c2cc1OC	64 µM (inactive)	35.9 µM (inactive)	89.5 µM (inactive)	73.5 µM (inactive)	68.4 µM (inactive)	20.4 µM (inactive)	39.6 µM (inactive)	–	> 100 µM (inactive)
CN1CCc2ccccc2C(C(=O)c2ccc3c(c2)OCO3)C1=O (stereo not drawn)	> 100 µM (inactive)	39.3 µM (inactive)	> 100 µM (inactive)	–	> 100 µM (inactive)	> 100 µM (inactive)	> 100 µM (inactive)	70.8 µM (inactive)	> 100 µM (inactive)
CCOC(=O)CNC(SC)=C(C#N)C#N	> 100 µM (inactive)	> 100 µM (inactive)	> 100 µM (inactive)	> 100 µM (inactive)	> 100 µM (inactive)	–	> 100 µM (inactive)	> 100 µM (inactive)	–
O=c1[nH]c(=O)n(C2CC(O)C(CO)O2)cc1C(OCC(F)(F)F)OCC(F)(F)F (stereo not drawn)	> 100 µM (inactive)	> 100 µM (inactive)	> 100 µM (inactive)	> 100 µM (inactive)	> 100 µM (inactive)	> 100 µM (inactive)	> 100 µM (inactive)	> 100 µM (inactive)	–
COc1ccc(N2C(=O)/C(=C/c3ccc(N(CCC#N)CCC#N)cc3C)N=C2c2cc([N+](=O)[O-])ccc2Cl)cc1	4.51 µM (inactive)	3.32 µM (inactive)	17.1 µM (inactive)	6.9 µM (inactive)	7.53 µM (inactive)	–	3.3 µM (inactive)	2.34 µM (inactive)	> 100 µM (inactive)
O=C1C=C(Nc2ccccc2C(=O)c2ccccc2)c2ccccc2C1=O	> 100 µM (inactive)	36.1 µM (inactive)	9.14 µM (inactive)	> 100 µM (inactive)	> 100 µM (inactive)	–	> 100 µM (inactive)	–	> 100 µM (inactive)
Cc1c(CC/C(=N\Nc2ccc([N+](=O)[O-])cc2[N+](=O)[O-])c2ccccc2)c2ccccc2n1C	> 100 µM (inactive)	> 100 µM (inactive)	> 100 µM (inactive)	> 100 µM (inactive)	> 100 µM (inactive)	> 100 µM (inactive)	> 100 µM (inactive)	> 100 µM (inactive)	–
CC(=O)OCc1c(O)nc2c(c1O)-c1ccccc1CC2	71.9 µM (inactive)	67.8 µM (inactive)	54.3 µM (inactive)	–	60 µM (inactive)	69.5 µM (inactive)	49.2 µM (inactive)	56.5 µM (inactive)	129 µM (inactive)
CCOC(=O)NNC(=O)NC12CC3CC(CC(C3)C1)C2	> 100 µM (inactive)	> 100 µM (inactive)	> 100 µM (inactive)	> 100 µM (inactive)	> 100 µM (inactive)	–	> 100 µM (inactive)	> 100 µM (inactive)	> 100 µM (inactive)
CC(=O)Nc1ccc(C2[C@H]3C(=O)N(c4ccc(Cc5ccc(N6C(=O)[C@@H]7ON(c8ccccc8)C(c8ccc(NC(C)=O)cc8)[C@@H]7C6=O)cc5)cc4)C(=O)[C@H]3ON2c2ccccc2)cc1 (stereo partly drawn)	> 100 µM (inactive)	> 100 µM (inactive)	44.2 µM (inactive)	> 100 µM (inactive)	> 100 µM (inactive)	–	> 100 µM (inactive)	–	> 100 µM (inactive)
COc1ccc(NC(=O)c2oc3cc(O)ccc3c(=O)c2C)c([N+](=O)[O-])c1	> 100 µM (inactive)	> 100 µM (inactive)	> 100 µM (inactive)	> 100 µM (inactive)	> 100 µM (inactive)	–	> 100 µM (inactive)	> 100 µM (inactive)	> 100 µM (inactive)
Cc1[nH]c2c(C)cccc2c1C1Cc2ccccc2N1 (stereo not drawn)	28.8 µM (inactive)	18.2 µM (inactive)	21.7 µM (inactive)	–	17.6 µM (inactive)	–	–	21.1 µM (inactive)	17.8 µM (inactive)
COc1ccc2nc3cc(Cl)ccc3c(Sc3ccc(N)cc3)c2c1	4.47 µM (inactive)	4.99 µM (inactive)	7.62 µM (inactive)	12.5 µM (inactive)	4.32 µM (inactive)	11 µM (inactive)	10.6 µM (inactive)	14.2 µM (inactive)	12.2 µM (inactive)
